Measured values as given in ChEMBL document CHEMBL1909046, “DrugMatrix in vitro pharmacology data”.

Columns and labels:
[1] = target: T1, C-C chemokine receptor type 4 (Homo sapiens, UniProt P51679); format: cell membranes, Membrane; settings: chem-1; also: in other assays of this panel Not Active means under 50% inhibition at 10 µM
T1 sequence (P51679 whole entry): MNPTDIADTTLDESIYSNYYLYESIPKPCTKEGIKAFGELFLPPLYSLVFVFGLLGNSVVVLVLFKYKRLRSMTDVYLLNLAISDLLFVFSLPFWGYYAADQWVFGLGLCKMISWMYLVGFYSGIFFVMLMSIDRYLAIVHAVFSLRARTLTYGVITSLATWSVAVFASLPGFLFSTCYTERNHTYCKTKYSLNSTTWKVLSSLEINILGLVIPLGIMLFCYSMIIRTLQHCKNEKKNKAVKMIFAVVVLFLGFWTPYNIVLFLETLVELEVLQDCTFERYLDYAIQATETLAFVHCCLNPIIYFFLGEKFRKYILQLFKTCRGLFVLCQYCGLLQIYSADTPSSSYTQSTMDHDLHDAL

[2] = target: T2, C-X-C chemokine receptor type 1 (Homo sapiens, UniProt P25024); also: in other assays of this panel Not Active means under 50% inhibition at 10 µM
T2 sequence (P25024 whole entry): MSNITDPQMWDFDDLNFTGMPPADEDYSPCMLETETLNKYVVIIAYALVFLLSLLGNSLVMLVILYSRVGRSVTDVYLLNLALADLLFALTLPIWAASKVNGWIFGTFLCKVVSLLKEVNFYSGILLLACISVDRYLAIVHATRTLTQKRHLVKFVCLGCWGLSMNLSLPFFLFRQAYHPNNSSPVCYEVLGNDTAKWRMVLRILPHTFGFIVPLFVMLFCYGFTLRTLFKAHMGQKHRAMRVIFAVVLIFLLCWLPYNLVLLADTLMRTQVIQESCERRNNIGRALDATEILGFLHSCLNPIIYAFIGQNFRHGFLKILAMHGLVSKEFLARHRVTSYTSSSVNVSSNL

D(3) dopamine receptor = D(3) dopamine receptor (Homo sapiens, UniProt P35462); assay: DRUGMATRIX: Dopamine D3 radioligand binding (ligand: [3H] Spiperone); format: cell membranes, CHO, Membrane
D(3) dopamine receptor, sequence (P35462 whole entry): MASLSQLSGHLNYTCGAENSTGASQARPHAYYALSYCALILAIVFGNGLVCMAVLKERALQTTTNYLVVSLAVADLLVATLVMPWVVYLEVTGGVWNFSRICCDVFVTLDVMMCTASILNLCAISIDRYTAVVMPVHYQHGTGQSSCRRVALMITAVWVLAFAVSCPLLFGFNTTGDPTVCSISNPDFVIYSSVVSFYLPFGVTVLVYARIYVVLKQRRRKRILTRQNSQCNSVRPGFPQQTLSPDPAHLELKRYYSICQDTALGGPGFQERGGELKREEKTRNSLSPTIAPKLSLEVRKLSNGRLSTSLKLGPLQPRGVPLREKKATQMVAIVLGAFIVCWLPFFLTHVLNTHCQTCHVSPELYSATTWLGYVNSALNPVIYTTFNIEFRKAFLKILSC

[3] = DRUGMATRIX: Imidazoline I2, Central radioligand binding (ligand: [3H] Idazoxan); format: cell membranes, Rattus norvegicus, Wistar, Cerebral cortex, Membrane; settings: Not Active = under 50% inhibition at 10 µM
[4] = target: T3, Muscarinic acetylcholine receptor M4 (Homo sapiens, UniProt P08173); format: cell membranes, CHO-K1, Membrane; also: in other assays of this panel Not Active means under 50% inhibition at 10 µM
T3 sequence (P08173 whole entry): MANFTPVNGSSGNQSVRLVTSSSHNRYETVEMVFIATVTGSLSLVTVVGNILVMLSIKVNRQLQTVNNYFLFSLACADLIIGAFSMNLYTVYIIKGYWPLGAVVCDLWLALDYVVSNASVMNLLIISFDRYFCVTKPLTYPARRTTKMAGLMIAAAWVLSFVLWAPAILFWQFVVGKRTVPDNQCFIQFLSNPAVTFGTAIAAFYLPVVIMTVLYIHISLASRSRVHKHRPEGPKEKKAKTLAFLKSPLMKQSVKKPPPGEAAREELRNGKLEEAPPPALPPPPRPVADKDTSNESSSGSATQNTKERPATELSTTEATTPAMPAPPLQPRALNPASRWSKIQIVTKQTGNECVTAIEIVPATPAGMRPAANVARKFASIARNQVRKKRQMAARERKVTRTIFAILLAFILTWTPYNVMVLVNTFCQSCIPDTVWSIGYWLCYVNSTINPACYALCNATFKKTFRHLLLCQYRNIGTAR

Estrogen receptor beta = Estrogen receptor beta (Homo sapiens, UniProt Q92731); settings: sf9; also: in other assays of this panel Not Active means under 50% inhibition at 10 µM
Estrogen receptor beta, sequence (Q92731 whole entry): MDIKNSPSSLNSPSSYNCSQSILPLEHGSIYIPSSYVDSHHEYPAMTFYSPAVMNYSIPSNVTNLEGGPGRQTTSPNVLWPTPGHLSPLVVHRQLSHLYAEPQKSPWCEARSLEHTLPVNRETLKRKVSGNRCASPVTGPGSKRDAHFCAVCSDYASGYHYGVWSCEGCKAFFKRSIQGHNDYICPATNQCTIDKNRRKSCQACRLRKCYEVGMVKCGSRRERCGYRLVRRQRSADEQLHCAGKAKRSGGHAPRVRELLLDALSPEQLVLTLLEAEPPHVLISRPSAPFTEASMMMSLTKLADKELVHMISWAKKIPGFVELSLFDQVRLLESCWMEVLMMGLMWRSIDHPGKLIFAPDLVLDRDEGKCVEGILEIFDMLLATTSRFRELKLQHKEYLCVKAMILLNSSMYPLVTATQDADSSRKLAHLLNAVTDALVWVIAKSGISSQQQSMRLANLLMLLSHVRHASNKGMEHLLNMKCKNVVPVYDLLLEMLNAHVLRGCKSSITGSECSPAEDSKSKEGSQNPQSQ

Row | Molecule | IC50 [1] | IC50 [2] | IC50 (D(3) dopamine receptor; cho) | IC50 [3] | Ki [3] | IC50 ([4]; cho-k1) | IC50 (Estrogen receptor beta) | Ki [2] | IC50 (D(3) dopamine receptor; read-out: IC50) [nM] | Ki (D(3) dopamine receptor; read-out: Ki) [nM] | IC50 ([4]; read-out: IC50) [nM] | Ki ([4]; read-out: Ki) [nM] | IC50 ([3]; read-out: IC50) [nM] | Ki ([3]; read-out: Ki) [nM] | Ki [1] | Ki (D(3) dopamine receptor; cho) | Ki ([4]; cho-k1) | Ki (Estrogen receptor beta)
1 | Nc1cc(-c2ccncc2)c[nH]c1=O [INAMRINONE] | Not Active | Not Active | Not Active | Not Active | Not Active | Not Active | Not Active | – | – | – | – | – | – | – | – | – | – | –
2 | CCCCC1=NC2(CCCC2)C(=O)N1Cc1ccc(-c2ccccc2-c2nnn[nH]2)cc1 [IRBESARTAN] | Not Active | Not Active | Not Active | Not Active | Not Active | Not Active | Not Active | – | – | – | – | – | – | – | – | – | – | –
3 | CN1CCC(=C2c3ccccc3CC(=O)c3sccc32)CC1 [KETOTIFEN] | Not Active | – | – | Not Active | Not Active | – | Not Active | Not Active | 1960 | 667 | 1010 | 141 | – | – | – | – | – | –
4 | N[C@@H](Cn1ccc(=O)c(O)c1)C(=O)O [L-MIMOSINE] | Not Active | Not Active | Not Active | Not Active | Not Active | Not Active | Not Active | – | – | – | – | – | – | – | – | – | – | –
5 | CN1CCCC(CN2c3ccccc3Sc3ccccc32)C1 (stereo unspecified) [MEPAZINE] | Not Active | Not Active | – | Not Active | Not Active | – | Not Active | – | 2010 | 681 | 137 | 19 | – | – | – | – | – | –
6 | Cc1cccc(C)c1NC(=O)C1CCCCN1C (stereo unspecified) [MEPIVACAINE] | Not Active | Not Active | Not Active | Not Active | Not Active | Not Active | Not Active | – | – | – | – | – | – | – | – | – | – | –
7 | CC(C)(C)NCC(O)COc1cccc2c1CC(O)C(O)C2 (stereo unspecified) [NADOLOL] | Not Active | Not Active | Not Active | Not Active | Not Active | Not Active | Not Active | – | – | – | – | – | – | – | – | – | – | –
8 | C[C@]12CC[C@H]3[C@@H](CCC4=CC(=O)CC[C@@H]43)[C@@H]1CC[C@@H]2O [NANDROLONE] | Not Active | Not Active | Not Active | Not Active | Not Active | Not Active | Not Active | – | – | – | – | – | – | – | – | – | – | –
9 | C[C@@H]1C/C=C/C=C/C=C/C=C/[C@H](O[C@@H]2O[C@H](C)[C@@H](O)[C@H](N)[C@@H]2O)C[C@@H]2O[C@](O)(C[C@@H](O)C[C@H]3O[C@@H]3/C=C/C(=O)O1)C[C@H](O)[C@H]2C(=O)O [NATAMYCIN] | Not Active | Not Active | Not Active | Not Active | Not Active | Not Active | Not Active | – | – | – | – | – | – | – | – | – | – | –
10 | NC(=O)c1cccnc1 [NIACINAMIDE] | Not Active | Not Active | Not Active | Not Active | Not Active | Not Active | Not Active | – | – | – | – | – | – | – | – | – | – | –
11 | CS(=O)(=O)Nc1ccc([N+](=O)[O-])cc1Oc1ccccc1 [NIMESULIDE] | Not Active | Not Active | Not Active | Not Active | Not Active | Not Active | Not Active | – | – | – | – | – | – | – | – | – | – | –
12 | C[C@@H]1O[C@@H](O[C@H]2C[C@@H](O)[C@]3(CO)[C@H]4[C@H](O)C[C@]5(C)[C@@H](C6=CC(=O)OC6)CC[C@]5(O)[C@@H]4CC[C@]3(O)C2)[C@H](O)[C@H](O)[C@H]1O [OUABAIN] | Not Active | Not Active | Not Active | Not Active | Not Active | Not Active | Not Active | – | – | – | – | – | – | – | – | – | – | –
13 | NC(=O)N1c2ccccc2CC(=O)c2ccccc21 [OXCARBAZEPINE] | Not Active | Not Active | Not Active | Not Active | Not Active | Not Active | Not Active | – | – | – | – | – | – | – | – | – | – | –
14 | COc1ccnc(C[S+]([O-])c2nc3ccc(OC(F)F)cc3[nH]2)c1OC (stereo unspecified) [PANTOPRAZOLE] | Not Active | Not Active | Not Active | Not Active | Not Active | Not Active | Not Active | – | – | – | – | – | – | – | – | – | – | –
15 | CCc1ccc(CCOc2ccc(CC3SC(=O)NC3=O)cc2)nc1 (stereo unspecified) [PIOGLITAZONE] | Not Active | Not Active | Not Active | Not Active | Not Active | Not Active | Not Active | – | – | – | – | – | – | – | – | – | – | –
16 | CCN(CC)CCNC(=O)c1ccc(N)cc1 [PROCAINAMIDE] | Not Active | Not Active | Not Active | Not Active | Not Active | Not Active | Not Active | – | – | – | – | – | – | – | – | – | – | –
17 | CCN(CC)CCCC(C)Nc1c2ccc(Cl)cc2nc2ccc(OC)cc12 (stereo unspecified) [QUINACRINE] | Not Active | Not Active | – | – | – | – | Not Active | – | 1320 | 448 | 1980 | 277 | 1520 | 1010 | – | – | – | –
18 | CC[C@]1(O)C[C@@H]2CN(CCc3c([nH]c4ccccc34)[C@@](C(=O)OC)(c3cc4c(cc3OC)N(C)[C@H]3[C@@](O)(C(N)=O)[C@H](O)[C@]5(CC)C=CCN6CC[C@]43[C@@H]65)C2)C1 [VINDESINE] | Not Active | Not Active | Not Active | Not Active | Not Active | Not Active | Not Active | – | – | – | – | – | – | – | – | – | – | –
19 | COBALTOUS CHLORIDE | Not Active | Not Active | Not Active | Not Active | Not Active | Not Active | Not Active | Not Active | – | – | – | – | – | – | Not Active | Not Active | Not Active | Not Active
20 | COLISTIN | Not Active | Not Active | Not Active | Not Active | Not Active | Not Active | Not Active | Not Active | – | – | – | – | – | – | Not Active | Not Active | Not Active | Not Active
